According to BindingDB's records for doi:10.1021/jo015665d (Merck Research Laboratories, 2001):

Molecular target: Polymerase acidic protein (Influenza A virus (strain A/Puerto Rico/8/1934 H1N1), UniProt P03433)
Experiment: Inhibition of cap 1 ALMV primed Influenza transcriptase

Compound	IC50
COCOn1c(=O)c(=Cc2ccccc2)[nH]c(=CC(C)C)c1=O	> 200 µM
COCOn1c(=O)c(=Cc2ccc(F)cc2)[nH]c(=CC(C)C)c1=O	> 200 µM
COCOn1c(=O)c(=Cc2cccc(F)c2)[nH]c(=CC(C)C)c1=O	> 200 µM
COCOn1c(=O)c(=Cc2ccccc2F)[nH]c(=CC(C)C)c1=O	> 200 µM
COCOn1c(=O)c(=Cc2ccccc2)[nH]c(=Cc2ccc(F)cc2)c1=O	> 200 µM
COCOn1c(=O)c(=Cc2ccc(OC)cc2)[nH]c(=CC(C)C)c1=O	> 200 µM
COCOn1c(=O)c(=Cc2ccccc2)[nH]c(=Cc2ccc(OC)cc2)c1=O	> 200 µM
CC(C)C=c1[nH]c(=Cc2ccc(F)cc2)c(=O)[nH]c1=O [3-(4-fluorobenzylidene)-5-isobutylpyrazine-2,6(1H,3H)-dione]	> 200 µM
COCOn1c(=O)c(=CC(C)C)[nH]c(=CC(C)C)c1=O [(3Z)-5-isobutyl-1-(methoxymethoxy)-3-(2-methylpropylidene)pyrazine-2,6(1H,3H)-dione]	> 200 µM
